Data from patent publication US5594032A, “Amelioration of human erectile dysfunction by treatment with iNOS, inducers of iNOS or iNOS cDNA” (priority 1994, dated 1997).

How the values were obtained:
Male Fischer 344 rats = assay: Erectile response (maximal intracavernosal pressure) to electrical field stimulation of the cavernosal nerve; format: in vivo, rat; settings: for inhibition of the erectile response: sub-optimal dose
Procedure: Male Fischer 344 rats from three age groups designated "adult" (5-month old), "old" (20 month old), and "very old" (28-32 month old) rats, were anesthetized with an intraperitoneal injection of sodium […] (pentobarbital) at 50 mg/kg. The definition of these age groups in terms of relative aging corresponds to conventional designations for the Fisher 344 strain of rats (maximal life span approximately 34-36 months; optimum breeding activity 2.5-8 months). The adult and very old rats were retired breeders whenever possible. Animals were maintained under controlled lighting and were treated according to NIH regulations. The number of animals in each group for each individual experiment is indicated in the corresponding figure.
A transversal suprapubic skin incision (5 mmm) was done to expose the penis angle and its proximal portion. The right corpora cavernosa was then cannulated with a 27-gauge needle attached to a vinyl tubing (Bolab/bb317-85 Arizona) which was connected with an ALZET^R osmotic pump (Alza Corporation, Palo Alto, Calif.). Each pump (100 or 200 ul reservoir volume, as indicated) contained a mix of E. coli lipopolysaccharide (LPS) at 1 ug/ml, recombinant rat […] (IFN-γ) at 2,500 U/ml, recombinant human tumor necrosis factor-(TNF-α) at 2,500 U/ml, and recombinant human interleukin-1β (IL-1β) at 50 ng/ml.
The needle and the tubing were fixed to the penis peripheral tissues by Mersilene* 6-0 suture and the osmotic pump was placed subcutaneously on the rat abdomen. […] The incision was closed by layer using Dexon* Plus 4-0 suture and the success of the operation was checked all throughout the experiment by observation of a normal recovery and urinary activity. These criteria were completed by verifying the absence of peripheral hematomas or inflammation when the pump was removed. Each pump delivered the inducer mix by osmotic pressure through the catheter directly into the corpora cavernosa, either at 1 ul/hr during 3 days (pump 1003D) or at 0.5 ul/hr during 14 days (pump 2002).
At the completion of each treatment rats were anesthetized as in Example 1 and the erectile response was measured by a modification of a published procedure. Briefly, the cavernosal nerve was surgically exposed and stimulated with a square pulse stimulator connected to a platinum bipolar electrode positioned on the nerve. Through a needle inserted into the cavernosa, the intracavernosal pressure was recorded with a pressure transducer connected to a recorder that was calibrated with a manometer in order to express the response in mm of mercury. The animals were reinjected every 45 min with 35 mg/kg of ketamine for the whole duration of the experiment (about 2-3 hours).
Each rat was submitted to the following sequential treatments done in duplicate: a) electrical field stimulation (EFS) at a frequency of 15 Hz for pulses of 30 sec, separated for 5 min intervals, for the voltage response curve, at […], 2.5, 5 and 10 volts, in this order; b) EFS at 10 volts with the nitric oxide synthase (NOS) inhibitor N -nitro-L-arginine methy ester (L-NAME) at 2 mg/kg, at a single dose per animal, recording 30 min. after injection. In some animals, the systemic blood pressure was measured at the beginning of the experiment, by intrafemoral cannulation and recording as above. Means and standard deviations were determined for the intracavernosal pressure values, and the statistical significance was obtained by the paired Student's t test.

penile NOS = assay: NOS activity in penile cytosol, (3-H) L-arginine to (3-H) citrulline conversion; format: biochemical, rat; settings: cytosol of inducer-treated rats
Procedure: Six adult rats were implanted with 100 ul pumps for 3 days, and then the pumps were replaced by similar ones with fresh solution as indicated in Example 2. Three animals had the pumps containing the inducer mix and three had saline as a control. At the end of the experiment the animals were anesthetized as indicated above and the penis (including the bulb), liver, and in some animals the cerebellum were surgically removed. The penile head and skin were excised and the organs were stored under liquid nitrogen.
NOS activity was determined from tissue homogenates from two treated and two control rats, not subjected to EFS in order to avoid the interference with residual L-NAME from the in vivo experiments and EFS-induced changes in NOS activity. […] After eliminating the residual (3-H)L-arginine through the resin, (3-H) citrulline was counted in the trichloroacetic acid ether-extracted supernatant. All values were corrected by the radioactivity eluted in time zero incubations.

[1] = system: rat penis smooth muscle cells (RPSMC); assay: Nitrite accumulation in medium of rat penis smooth muscle cell cultures (Greiss reagent); format: cell-based
Procedure: Primary cultures of RPSMC were initiated from small pieces of penile tissue excised from 3 months old Sprague Dawley rats, utilizing Dulbecco's modified Eagle medium (DMEM) with 20% fetal calf serum, at 37° C. in the presence of 5% CO2. Cells grown from the explants were then transferred to medium with 10% serum, and at the 4th to 10th passage (1:3 splits) they were utilized for the experiments, unless otherwise indicated. Alternatively, cells from the 4-8th passage stored under liquid nitrogen were used to reinitiate the cultures, and used for incubations on the following 2-4 passages. These cultures are considered to consist mainly of smooth muscle cells from the penis based on morphological and cytoimmunochemical criteria.
All experiments were conducted at 90-100% cell confluence on "Primaria" cultureware, usually 24-well plates, adding or not the inducers indicated in each experiment. When not specifically stated, the standard binary induction mix consisted of bacterial lipopolysaccharide (LPS) (10 ug/ml) and recombinant murine […] (INF-θ) (250 U/ml). Other substances to be tested were added as indicated to the serum-containing medium, and the incubation proceeded for the times indicated. The medium was always collected and stored for an indirect measurement of NO production based on the determination of its conversion into nitrites. The procedure was based on the application of the Greiss reagent, using 250 ul of the medium mixed with an equal volume of reagent. Each experimental condition was carried out in triplicate.

cNOS, iNOS = settings: cited from earlier work
[2] = supplemented with 1 or 10 ug/ml LPS, 48 hr incubation

COC(=O)[C@@H](N)CCCNC(=N)N[N+](=O)[O-] [L-NAME, N-nitro-L-arginine methyl ester]
fraction of maximal intracavernosal pressure remaining after L-NAME (Male Fischer 344 rats; adult rats treated with inducers, L-NAME 2 mg/kg, EFS 10 volts): 39%
fraction of maximal intracavernosal pressure remaining after L-NAME (Male Fischer 344 rats; adult rats without inducer treatment (separate study)): 62%
fraction of maximal intracavernosal pressure remaining after L-NAME (Male Fischer 344 rats; old rats treated with inducers, L-NAME 2 mg/kg, EFS 10 volts): 18%
fraction of maximal intracavernosal pressure remaining after L-NAME (Male Fischer 344 rats; old rats without inducer treatment (separate study)): 30%
inhibition of the erectile response (Male Fischer 344 rats; non-respondent rats after 14 days inducer treatment): normal
inhibition of the erectile response (Male Fischer 344 rats; respondent animals after 14 days inducer treatment, three age groups): over 95%
fraction of maximal intracavernosal pressure remaining after L-NAME (Male Fischer 344 rats; very old rats treated with inducers, L-NAME 2 mg/kg, EFS 10 volts): 28%
fraction of maximal intracavernosal pressure remaining after L-NAME (Male Fischer 344 rats; very old rats without inducer treatment (separate study)): 23%
inhibition of NOS activity in penile cytosol (penile NOS; 2 mM): 60-70%
inhibition at 2000 µM ([1]; Rattus norvegicus, 2 mM, RPSMC treated with standard induction mix, read-out: inhibition of nitrite release): ≤ 85%

N=C(NCCC[C@H](N)C(=O)O)N[N+](=O)[O-] [L-nitroarginine]
potency as inhibitor of cNOS relative to iNOS (cNOS, iNOS): 1000 fold

N=C(N)NN [aminoguanidine]
isoform preference of NOS inhibition (cNOS, iNOS; specificity varies with the cell type): preferential inhibitor for iNOS
effect on NOS activity in penile cytosol (penile NOS; 0.3 mM): not affected

IL-1β: recombinant human interleukin-1 β
effectiveness compared with 500 U/ml INF-θ ([1]; 5 ng/ml with 10 ug/ml LPS, 48 hr): slightly more effective

TNF-α
effect on nitrite production ([1]; up to 500 u/ml, presence or absence of LPS, 48 hr): did not have any effect

B1: INF-θ: recombinant murine interferon-θ (in vitro); recombinant rat interferon-θ (IFN-γ) in vivo (protein, UniProt P01580 23-155, looked up)
Interferon gamma: HGTVIESLESLNNYFNSSGIDVEEKSLFLDIWRNWQKDGDMKILQSQIISFYLRLFEVLKDNQAISNNISVIESHLITTFFSNSKAKKDAFMSIAKFEVNNPQVQRQAFNELIRVVHQLLPESSLRKRKRSRC
modifications: rat IFN-gamma used in vivo
nitrites in culture medium, maximum ([1]; 50 to 500 U/ml, absence of LPS, 48 hr incubation): ≤ 45 µM
induction relative to the basal level [1, 2]: ~20 fold
nitrites in culture medium [1, 2]: up to 120 uM
